Source: patent US12690589B2, “Herbicidal compositions comprising pyroxasulfone” (BASF SE, priority 2024, dated 2026)

Columns and labels:
Assay in all cases: Post-emergence application in field trials, herbicidal activity (damage scale 0 to 100%)
Format in all cases: in vivo
[1] = tested on: Hordeum vulgare (HORVW); conditions: HORVW, growth stage 23-29, height 20-25 cm, B 90 g ai/ha, 28 DAT, Table 4.5
Method: (§1) In the examples below, using the method of S. R. Colby (1967) “Calculating synergistic and antagonistic responses of herbicide combinations”, Weeds 15, p. 22ff., the value E, which is expected if the activity of the individual active compounds is only additive, was calculated:
(§2) [formula] • wherein • X=percent activity using active herbicide A at an application rate a; • Y=percent activity using active herbicide B (e.g. pyroxasulfone) at an application rate b; • E=expected activity (in %) by A+B at application rates a+b.
(§3) For 3-component mixtures the synergistic response was calculated as described in: Ferry, Nancy; Stanley, Bruce H.; and Armel, Gregory (2005). “DESIGN AND ANALYSIS OF BIOLOGICAL ASSAYS OF MIXTURES,” Conference on Applied Statistics in Agriculture. https://doi.org/10.4148/2475-7772.1133. According to this publication, the Colby calculation can be generalized to a third mixing partner, Z, employing the following formula: […]
(§4) If the value found experimentally is higher than the value E calculated according to Colby, a synergistic effect is present.
(§5) On field test sites, natural weed infestation or seeded weeds were treated post-emergence of the weeds.
(§6) In the field trials, the weeds were treated as indicated below.
(§7) In the following experiments, the herbicidal activity for the individual herbicidal compositions (solo and mixture applications) was assessed at the indicated days after treatment (DAT). The assessments for the damage on undesired weeds caused by the composition was carried out using a scale from 0 to 100%, compared to the untreated control plants. Here, 0 means no damage and 100 means complete destruction of the plants.
(§8) Herbicide A-1 (342 g/l) and pyroxasulfone (500 g/l) were, together with addition of 0.25 v/v % MSO (methylated seed oil) as adjuvant, formulated in 200 l/ha water as distribution medium and sprayed with commercial flat fan nozzles.
(§9) Herbicide A-1 (342 g/l), pyroxasulfone (500 g/l) and trifludimoxazin (500 g/l) were, together with addition of 0.25 v/v % MSO (methylated seed oil) as adjuvant, formulated in 200 l/ha water as distribution medium and sprayed with commercial flat fan nozzles.
(§10) Herbicide A-1 (342 g/I), pyroxasulfone (500 g/l) and glyphosate-isopropylammonium (356 g/l) were, together with addition of 0.25 v/v % MSO (methylated seed oil) as adjuvant, formulated in 200 l/ha water as distribution medium and sprayed with commercial flat fan nozzles.
(§11) Herbicide A-1 (342 g/l), pyroxasulfone (500 g/l) and glufosinate-P-ammonium (211 g/l) were, together with addition of 0.25 v/v % MSO (methylated seed oil) as adjuvant, formulated in 200 l/ha water as distribution medium and sprayed with commercial flat fan nozzles.
(§12) Herbicide A-1 (342 g/l), pyroxasulfone (500 g/l) and 2,4-D-choline (456 g/l) were, together with addition of 0.25 v/v % MSO (methylated seed oil) as adjuvant, formulated in 200 l/ha water as distribution medium and sprayed with commercial flat fan nozzles.

[2] = tested on: Setaria verticillata (SETVE)
Method: as §1, §2, §3, §4, §5, §6, §7, §8, §9, §10, §11, §12

[3] = tested on: Zea mays (ZEAMX)
Method: as §1, §2, §3, §4, §5, §6, §7, §8, §9, §10, §11, §12

[4] = tested on: Echinochloa crus-galli (ECHCG)
Method: as §1, §2, §4, §5, §6, §7
Herbicide A-1 (50 g/l) and pyroxasulfone (85% WG) were, together with addition of 0.5% MSO (methylated seed oil) as adjuvant, formulated in water as distribution medium (water volume 200 l/ha) and sprayed with commercial flat fan nozzles.

SMILES: Cn1nc(C(F)(F)F)c(CS(=O)(=O)C2=NOC(C)(C)C2)c1OC(F)F [B, pyroxasulfone]
- % Herbicidal activity [1]: 0%
- % Herbicidal activity ([2]; 7 DAT, stage 21-23, height 8-16 cm, g ai/ha A-1 18, B 70, C-8 840): 0%
- % Herbicidal activity ([2]; 7 DAT, stage 21-23, height 8-16 cm, g ai/ha A-1 18, B 70, C-12 252): 0%
- % Herbicidal activity ([2]; 7 DAT, stage 21-23, height 8-16 cm, g ai/ha A-1 18, B 90, C-4 12.5): 0%
- % Herbicidal activity ([2]; 7 DAT, stage 21-23, height 8-16 cm, g ai/ha A-1 18, B 90, C-8 840): 0%
- % Herbicidal activity ([2]; 7 DAT, stage 21-23, height 8-16 cm, g ai/ha A-1 18, B 90, C-12 252): 0%
- % Herbicidal activity ([2]; 21 DAT, stage 21-23, height 8-16 cm, g ai/ha A-1 18, B 90, C-12 252): 0%
- % Herbicidal activity ([2]; 42 DAT, stage 21-23, height 8-16 cm, g ai/ha A-1 12.5, B 70): 0%
- % Herbicidal activity ([2]; 42 DAT, stage 21-23, height 8-16 cm, g ai/ha A-1 12.5, B 70, C-12 252): 0%
- % Herbicidal activity ([2]; 42 DAT, stage 21-23, height 8-16 cm, g ai/ha A-1 18, B 70): 0%
- % Herbicidal activity ([2]; 42 DAT, stage 21-23, height 8-16 cm, g ai/ha A-1 18, B 90, C-12 252): 0%
- % Herbicidal activity ([2]; SETVE, growth stage 21-23, height 8-16 cm, B 70 g ai/ha, 7 DAT, Table 4.1): 0%
- % Herbicidal activity ([2]; SETVE, growth stage 21-23, height 8-16 cm, B 70 g ai/ha, 21 DAT, Table 4.3): 0%
- % Herbicidal activity ([2]; SETVE, growth stage 21-23, height 8-16 cm, B 90 g ai/ha, 7 DAT, Table 4.1): 0%
- % Herbicidal activity ([2]; SETVE, growth stage 21-23, height 8-16 cm, B 90 g ai/ha, 21 DAT, Table 4.3): 0%
- % Herbicidal activity ([2]; Table 8.1, 7 DAT, stage 21-23, height 8-16 cm, g ai/ha A-1 18, B 70, C-12 1066): 0%
- % Herbicidal activity ([2]; Table 8.2, 21 DAT, stage 21-23, height 8-16 cm, g ai/ha A-1 12.5, B 70, C-12 1066): 0%
- % Herbicidal activity ([2]; Table 8.4, 42 DAT, stage 21-23, height 8-16 cm, g ai/ha A-1 12.5, B 70, C-12 1066): 0%
- % Herbicidal activity ([3]; 7 DAT, stage 15-16, height 27-33 cm, g ai/ha A-1 12.5, B 70, C-12 252): 0%
- % Herbicidal activity ([3]; 7 DAT, stage 15-16, height 27-33 cm, g ai/ha A-1 18, B 70, C-12 252): 0%
- % Herbicidal activity ([3]; 7 DAT, stage 15-16, height 27-33 cm, g ai/ha A-1 18, B 90, C-4 12.5): 0%
- % Herbicidal activity ([3]; 7 DAT, stage 15-16, height 27-33 cm, g ai/ha A-1 18, B 90, C-12 252): 0%
- % Herbicidal activity ([3]; 21 DAT, stage 15-16, height 27-33 cm, g ai/ha A-1 12.5, B 70, C-12 252): 0%
- % Herbicidal activity ([3]; 21 DAT, stage 15-16, height 27-33 cm, g ai/ha A-1 18, B 70, C-12 252): 0%
- % Herbicidal activity ([3]; 21 DAT, stage 15-16, height 27-33 cm, g ai/ha A-1 18, B 90, C-12 252): 0%
- % Herbicidal activity ([3]; 42 DAT, stage 15-16, height 27-33 cm, g ai/ha A-1 12.5, B 70, C-12 252): 0%
- % Herbicidal activity ([3]; 42 DAT, stage 15-16, height 27-33 cm, g ai/ha A-1 18, B 70, C-12 252): 0%
- % Herbicidal activity ([3]; 42 DAT, stage 15-16, height 27-33 cm, g ai/ha A-1 18, B 90, C-12 252): 0%
- % Herbicidal activity ([3]; Table 8.1, 7 DAT, stage 15-16, height 50-60 cm, g ai/ha A-1 18, B 70, C-12 1066): 5%
- % Herbicidal activity ([3]; Table 8.1, 7 DAT, stage 15-16, height 50-60 cm, g ai/ha A-1 18, B 90, C-12 1066): 5%
- % Herbicidal activity ([3]; ZEAMX, growth stage 15-16, height 40-60 cm, B 70 g ai/ha, 7 DAT, Table 4.2): 5%
- % Herbicidal activity ([3]; ZEAMX, growth stage 15-16, height 40-60 cm, B 70 g ai/ha, 21 DAT, Table 4.4): 3%
- % Herbicidal activity ([3]; ZEAMX, growth stage 15-16, height 40-60 cm, B 90 g ai/ha, 7 DAT, Table 4.2): 5%
- % Herbicidal activity ([4]; 7 DAT, stage 23-30, height 15-20 cm, g ai/ha A-1 12.5, B 70, C-12 252): 10%
- % Herbicidal activity ([4]; 21 DAT, stage 23-30, height 15-20 cm, g ai/ha A-1 12.5, B 70, C-12 252): 10%
- % Herbicidal activity ([4]; 28 DAT, stage 23-30, height 15-20 cm, g ai/ha A-1 12.5, B 70, C-12 252): 10%
- % Herbicidal activity ([4]; ECHCG, height 20-25 cm, B 120 g ai/ha, 21 DAT, Table 2.3): 0%
- % Herbicidal activity ([4]; Table 8.2, 21 DAT, stage 23-30, height 15-20 cm, g ai/ha A-1 18, B 70, C-12 1066): 0%
- % Herbicidal activity ([4]; Table 8.2, 21 DAT, stage 23-30, height 15-20 cm, g ai/ha A-1 18, B 90, C-12 1066): 0%
- % Herbicidal activity ([4]; Table 8.3, 28 DAT, stage 23-30, height 15-20 cm, g ai/ha A-1 18, B 70, C-12 1066): 0%
- % Herbicidal activity ([4]; Table 8.3, 28 DAT, stage 23-30, height 15-20 cm, g ai/ha A-1 18, B 90, C-12 1066): 0%
